This note sets out measurements from ChEMBL document CHEMBL5696442, “Discovery of type II inhibitors of TGFβ-activated kinase 1 (TAK1) and mitogen-activated protein kinase kinase kinase kinase 2 (MAP4K2)” (J Med Chem, 2015).

Active and inactive are the calls of the source. No cut-off for these calls is given here.

The inhibition is the drop in the measured response relative to a control, in per cent. One may read the residual activity as what remains of the control signal, in per cent. A higher residual activity goes with much activity left.

Assay [1] concerns the target Ribosomal protein S6 kinase alpha-5 (Homo sapiens) (UniProt O75582). The assay can be described thus: Inhibition of MSK1 domain1 ATP Loop labeling site in human Huh-7 cells at 1 uM by KiNativ Profiling analysis relative to control. It counts as cell-based.
Assay [2] concerns the target T1, EKC/KEOPS complex subunit TP53RK (Homo sapiens) (UniProt Q96S44).
T1 sequence (whole entry): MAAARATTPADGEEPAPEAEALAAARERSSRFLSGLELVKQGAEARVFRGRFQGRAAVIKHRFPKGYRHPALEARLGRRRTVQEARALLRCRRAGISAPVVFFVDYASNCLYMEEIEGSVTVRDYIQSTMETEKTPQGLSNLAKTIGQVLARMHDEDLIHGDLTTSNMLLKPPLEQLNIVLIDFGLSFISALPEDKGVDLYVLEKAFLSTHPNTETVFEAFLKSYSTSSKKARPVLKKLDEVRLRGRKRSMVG
Description: Inhibition of PRPK ATP Loop labeling site in human A-375 cells at 0.05 uM by KiNativ Profiling analysis relative to control. It is filed as cell-based.

Assay [3] concerns the target Tyrosine-protein kinase Yes (Homo sapiens) (UniProt P07947). The assay can be described thus: Inhibition of YES (unknown origin) at 1 uM by Ambit Kinomescan binding assay relative to control; values are per cent of control.
Assay [4] concerns the target Casein kinase II subunit alpha' (Homo sapiens) (UniProt P19784). Description: Inhibition of CSNK2A2 (unknown origin) at 1 uM by Ambit Kinomescan binding assay relative to control; values are per cent of control.
Assay [5] has as its target Serine/threonine-protein kinase MARK2 (Homo sapiens) (UniProt Q7KZI7). Description: Inhibition of MARK2 Lys2 labeling site harbouring FIVHRDLKAENLLLDADMNIK in human A-375 cells at 0.5 uM by KiNativ Profiling analysis relative to control. It is filed as cell-based.
The target in assay [6] is Casein kinase II subunit alpha (Homo sapiens) (UniProt P68400). The assay can be described thus: Inhibition of CSNK2A1 (unknown origin) at 10 uM by Ambit Kinomescan binding assay.
In assay [7] the target is Serine/threonine-protein kinase Nek5 (Homo sapiens) (UniProt Q6P3R8). Description: Inhibition of NEK5 (unknown origin) at 10 uM by Ambit Kinomescan binding assay.
Assay [8] deals with TRAF2 and NCK-interacting protein kinase (Homo sapiens) (UniProt Q9UKE5). The assay can be described thus: Inhibition of ZC2/TNIK K2 labeling site in human Huh-7 cells at 10 uM by KiNativ Profiling analysis relative to control. It counts as cell-based.
In assay [9] the target is T2, Serine/threonine-protein kinase D3 (Homo sapiens) (UniProt O94806).
T2 sequence (whole entry): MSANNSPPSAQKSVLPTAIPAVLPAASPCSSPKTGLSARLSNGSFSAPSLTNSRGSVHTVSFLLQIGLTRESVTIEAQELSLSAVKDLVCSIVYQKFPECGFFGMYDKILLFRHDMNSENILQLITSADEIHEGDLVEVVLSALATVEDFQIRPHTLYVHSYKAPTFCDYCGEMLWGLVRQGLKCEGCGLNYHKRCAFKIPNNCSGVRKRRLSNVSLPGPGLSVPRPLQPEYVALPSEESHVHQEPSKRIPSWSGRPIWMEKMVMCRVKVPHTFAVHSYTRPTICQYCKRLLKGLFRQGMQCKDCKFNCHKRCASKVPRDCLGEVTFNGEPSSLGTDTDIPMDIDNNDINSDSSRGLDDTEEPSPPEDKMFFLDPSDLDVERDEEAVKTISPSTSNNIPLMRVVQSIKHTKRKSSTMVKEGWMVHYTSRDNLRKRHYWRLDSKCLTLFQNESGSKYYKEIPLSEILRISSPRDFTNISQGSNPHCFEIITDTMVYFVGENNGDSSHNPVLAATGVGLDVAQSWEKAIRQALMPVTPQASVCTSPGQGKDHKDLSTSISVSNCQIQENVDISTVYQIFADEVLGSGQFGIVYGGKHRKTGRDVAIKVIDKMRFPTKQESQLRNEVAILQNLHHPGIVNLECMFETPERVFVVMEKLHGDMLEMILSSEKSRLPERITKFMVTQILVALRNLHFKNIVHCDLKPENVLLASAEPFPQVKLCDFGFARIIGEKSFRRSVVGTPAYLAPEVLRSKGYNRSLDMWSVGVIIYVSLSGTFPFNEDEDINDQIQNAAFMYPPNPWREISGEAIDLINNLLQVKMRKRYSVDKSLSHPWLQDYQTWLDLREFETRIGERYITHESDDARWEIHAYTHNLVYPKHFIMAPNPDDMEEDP
The assay can be described thus: Inhibition of PRKD3 (unknown origin) at 10 uM by Ambit Kinomescan binding assay.

The target in assay [10] is Citron Rho-interacting kinase (Homo sapiens) (UniProt O14578). The assay can be described thus: Inhibition of CIT (unknown origin) at 10 uM by Ambit Kinomescan binding assay relative to control; values are per cent of control.
Assay [11] has as its target LIM domain kinase 1 (Homo sapiens) (UniProt P53667). Description: Inhibition of LIMK1 (unknown origin) at 10 uM by Ambit Kinomescan binding assay.
The target in assay [12] is T3, PAN2-PAN3 deadenylation complex subunit PAN3 (Homo sapiens) (UniProt Q58A45).
T3 sequence (whole entry): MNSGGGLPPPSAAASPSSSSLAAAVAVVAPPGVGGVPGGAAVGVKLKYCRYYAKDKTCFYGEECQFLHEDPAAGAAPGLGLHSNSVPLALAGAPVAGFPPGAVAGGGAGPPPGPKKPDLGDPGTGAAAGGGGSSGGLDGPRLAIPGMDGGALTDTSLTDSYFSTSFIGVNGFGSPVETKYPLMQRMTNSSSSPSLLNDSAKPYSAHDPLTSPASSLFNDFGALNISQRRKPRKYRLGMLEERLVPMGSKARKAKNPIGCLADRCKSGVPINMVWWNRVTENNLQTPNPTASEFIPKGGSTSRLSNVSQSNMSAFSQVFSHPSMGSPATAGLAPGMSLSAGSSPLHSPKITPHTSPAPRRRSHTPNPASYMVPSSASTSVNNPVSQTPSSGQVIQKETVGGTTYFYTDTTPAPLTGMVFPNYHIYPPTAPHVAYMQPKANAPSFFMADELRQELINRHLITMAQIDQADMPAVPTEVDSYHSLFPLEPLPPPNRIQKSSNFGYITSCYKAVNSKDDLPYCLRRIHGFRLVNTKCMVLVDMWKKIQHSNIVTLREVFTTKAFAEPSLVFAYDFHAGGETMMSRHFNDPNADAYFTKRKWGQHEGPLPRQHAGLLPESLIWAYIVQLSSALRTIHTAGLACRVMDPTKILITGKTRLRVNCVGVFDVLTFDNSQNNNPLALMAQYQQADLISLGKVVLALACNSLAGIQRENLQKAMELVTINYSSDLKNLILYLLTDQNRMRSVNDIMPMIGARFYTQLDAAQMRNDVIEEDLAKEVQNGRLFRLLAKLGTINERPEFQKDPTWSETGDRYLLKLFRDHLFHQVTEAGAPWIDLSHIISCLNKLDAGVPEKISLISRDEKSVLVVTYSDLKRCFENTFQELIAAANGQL
Description: Inhibition of PAN3 KD labeling site in human Huh-7 cells at 10 uM by KiNativ Profiling analysis relative to control. It counts as cell-based.

Citron Rho-interacting kinase (Homo sapiens), sequence (O14578 whole entry, the tested form may be a part): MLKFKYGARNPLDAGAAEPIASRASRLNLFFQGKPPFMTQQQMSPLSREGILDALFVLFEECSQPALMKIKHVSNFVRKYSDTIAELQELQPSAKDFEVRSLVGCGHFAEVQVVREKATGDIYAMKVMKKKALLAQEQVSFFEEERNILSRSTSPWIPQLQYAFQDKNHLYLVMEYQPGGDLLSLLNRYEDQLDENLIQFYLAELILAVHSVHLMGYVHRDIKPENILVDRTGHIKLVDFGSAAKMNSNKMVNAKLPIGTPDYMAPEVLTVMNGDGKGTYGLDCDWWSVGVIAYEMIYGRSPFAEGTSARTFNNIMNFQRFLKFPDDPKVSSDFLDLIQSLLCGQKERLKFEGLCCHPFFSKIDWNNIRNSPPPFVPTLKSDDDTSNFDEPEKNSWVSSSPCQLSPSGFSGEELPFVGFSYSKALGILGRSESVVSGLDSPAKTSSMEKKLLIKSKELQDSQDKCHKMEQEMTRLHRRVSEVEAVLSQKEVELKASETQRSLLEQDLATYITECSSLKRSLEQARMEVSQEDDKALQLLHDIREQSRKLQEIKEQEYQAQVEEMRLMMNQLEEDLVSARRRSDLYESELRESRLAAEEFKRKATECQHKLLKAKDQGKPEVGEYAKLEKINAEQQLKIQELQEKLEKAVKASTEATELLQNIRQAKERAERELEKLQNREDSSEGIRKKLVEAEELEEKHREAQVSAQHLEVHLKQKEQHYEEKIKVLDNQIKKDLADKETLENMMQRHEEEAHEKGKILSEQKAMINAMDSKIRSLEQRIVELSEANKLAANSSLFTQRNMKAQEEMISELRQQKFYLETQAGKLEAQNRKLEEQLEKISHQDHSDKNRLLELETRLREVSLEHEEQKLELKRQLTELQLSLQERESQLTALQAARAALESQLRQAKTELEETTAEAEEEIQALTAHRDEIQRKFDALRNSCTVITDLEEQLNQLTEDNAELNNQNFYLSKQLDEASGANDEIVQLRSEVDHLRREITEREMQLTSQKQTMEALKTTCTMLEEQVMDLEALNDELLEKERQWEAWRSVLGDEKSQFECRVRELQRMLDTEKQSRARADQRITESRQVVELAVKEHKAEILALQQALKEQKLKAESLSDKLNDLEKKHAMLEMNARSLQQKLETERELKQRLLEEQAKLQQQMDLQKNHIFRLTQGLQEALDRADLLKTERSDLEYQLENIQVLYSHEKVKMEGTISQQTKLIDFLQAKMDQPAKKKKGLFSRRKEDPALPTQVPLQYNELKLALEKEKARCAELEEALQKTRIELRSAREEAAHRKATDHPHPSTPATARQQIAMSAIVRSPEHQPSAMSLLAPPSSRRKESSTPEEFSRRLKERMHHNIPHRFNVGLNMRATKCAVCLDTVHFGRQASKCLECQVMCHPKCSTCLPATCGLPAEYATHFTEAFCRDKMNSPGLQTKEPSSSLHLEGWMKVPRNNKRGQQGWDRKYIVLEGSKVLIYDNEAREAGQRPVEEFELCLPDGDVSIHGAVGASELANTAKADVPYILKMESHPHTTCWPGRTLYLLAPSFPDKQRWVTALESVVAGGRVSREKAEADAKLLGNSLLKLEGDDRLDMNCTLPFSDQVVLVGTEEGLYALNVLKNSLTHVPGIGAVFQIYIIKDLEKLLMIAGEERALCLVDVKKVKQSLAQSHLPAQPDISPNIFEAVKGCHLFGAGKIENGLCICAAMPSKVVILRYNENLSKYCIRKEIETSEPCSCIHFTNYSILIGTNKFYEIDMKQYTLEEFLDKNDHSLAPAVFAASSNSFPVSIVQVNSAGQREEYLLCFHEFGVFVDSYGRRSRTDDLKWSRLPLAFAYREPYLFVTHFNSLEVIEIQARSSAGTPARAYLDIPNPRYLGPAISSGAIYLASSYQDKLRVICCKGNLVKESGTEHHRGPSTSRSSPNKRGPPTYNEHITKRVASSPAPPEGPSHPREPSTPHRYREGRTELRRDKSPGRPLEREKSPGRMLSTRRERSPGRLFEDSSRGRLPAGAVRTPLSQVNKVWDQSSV
Serine/threonine-protein kinase MARK2 (Homo sapiens), sequence (Q7KZI7 whole entry): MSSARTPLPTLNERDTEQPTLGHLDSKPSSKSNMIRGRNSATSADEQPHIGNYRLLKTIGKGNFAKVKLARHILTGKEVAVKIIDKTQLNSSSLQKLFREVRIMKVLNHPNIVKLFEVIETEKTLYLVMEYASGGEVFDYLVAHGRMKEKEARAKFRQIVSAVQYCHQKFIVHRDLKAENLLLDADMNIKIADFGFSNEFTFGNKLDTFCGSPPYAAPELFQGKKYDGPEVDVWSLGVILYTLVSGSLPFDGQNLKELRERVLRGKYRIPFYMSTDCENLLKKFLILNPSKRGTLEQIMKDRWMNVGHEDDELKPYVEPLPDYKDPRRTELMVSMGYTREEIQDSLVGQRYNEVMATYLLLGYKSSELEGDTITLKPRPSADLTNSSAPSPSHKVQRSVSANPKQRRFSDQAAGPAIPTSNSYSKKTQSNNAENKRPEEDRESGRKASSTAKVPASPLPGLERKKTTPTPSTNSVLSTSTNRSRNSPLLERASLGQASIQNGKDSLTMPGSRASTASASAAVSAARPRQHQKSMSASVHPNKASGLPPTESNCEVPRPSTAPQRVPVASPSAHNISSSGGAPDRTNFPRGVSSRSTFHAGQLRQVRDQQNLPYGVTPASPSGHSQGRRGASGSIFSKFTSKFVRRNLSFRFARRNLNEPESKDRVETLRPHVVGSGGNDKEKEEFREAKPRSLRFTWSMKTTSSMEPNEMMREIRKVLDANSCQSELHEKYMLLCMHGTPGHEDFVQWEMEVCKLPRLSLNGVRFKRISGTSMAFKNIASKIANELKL
Casein kinase II subunit alpha (Homo sapiens), sequence (P68400 whole entry, looked up): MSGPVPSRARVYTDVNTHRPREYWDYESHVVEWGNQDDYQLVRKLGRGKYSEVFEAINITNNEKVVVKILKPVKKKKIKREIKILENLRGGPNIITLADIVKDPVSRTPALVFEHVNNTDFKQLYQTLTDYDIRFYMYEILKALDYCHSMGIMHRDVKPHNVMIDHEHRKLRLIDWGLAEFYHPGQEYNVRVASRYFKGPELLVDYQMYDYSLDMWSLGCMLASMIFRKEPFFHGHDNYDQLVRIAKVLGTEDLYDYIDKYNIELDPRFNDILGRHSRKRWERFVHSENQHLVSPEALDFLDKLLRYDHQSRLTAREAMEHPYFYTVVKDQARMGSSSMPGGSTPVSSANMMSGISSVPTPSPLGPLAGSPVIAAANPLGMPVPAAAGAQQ
TRAF2 and NCK-interacting protein kinase (Homo sapiens), sequence (Q9UKE5 whole entry, looked up): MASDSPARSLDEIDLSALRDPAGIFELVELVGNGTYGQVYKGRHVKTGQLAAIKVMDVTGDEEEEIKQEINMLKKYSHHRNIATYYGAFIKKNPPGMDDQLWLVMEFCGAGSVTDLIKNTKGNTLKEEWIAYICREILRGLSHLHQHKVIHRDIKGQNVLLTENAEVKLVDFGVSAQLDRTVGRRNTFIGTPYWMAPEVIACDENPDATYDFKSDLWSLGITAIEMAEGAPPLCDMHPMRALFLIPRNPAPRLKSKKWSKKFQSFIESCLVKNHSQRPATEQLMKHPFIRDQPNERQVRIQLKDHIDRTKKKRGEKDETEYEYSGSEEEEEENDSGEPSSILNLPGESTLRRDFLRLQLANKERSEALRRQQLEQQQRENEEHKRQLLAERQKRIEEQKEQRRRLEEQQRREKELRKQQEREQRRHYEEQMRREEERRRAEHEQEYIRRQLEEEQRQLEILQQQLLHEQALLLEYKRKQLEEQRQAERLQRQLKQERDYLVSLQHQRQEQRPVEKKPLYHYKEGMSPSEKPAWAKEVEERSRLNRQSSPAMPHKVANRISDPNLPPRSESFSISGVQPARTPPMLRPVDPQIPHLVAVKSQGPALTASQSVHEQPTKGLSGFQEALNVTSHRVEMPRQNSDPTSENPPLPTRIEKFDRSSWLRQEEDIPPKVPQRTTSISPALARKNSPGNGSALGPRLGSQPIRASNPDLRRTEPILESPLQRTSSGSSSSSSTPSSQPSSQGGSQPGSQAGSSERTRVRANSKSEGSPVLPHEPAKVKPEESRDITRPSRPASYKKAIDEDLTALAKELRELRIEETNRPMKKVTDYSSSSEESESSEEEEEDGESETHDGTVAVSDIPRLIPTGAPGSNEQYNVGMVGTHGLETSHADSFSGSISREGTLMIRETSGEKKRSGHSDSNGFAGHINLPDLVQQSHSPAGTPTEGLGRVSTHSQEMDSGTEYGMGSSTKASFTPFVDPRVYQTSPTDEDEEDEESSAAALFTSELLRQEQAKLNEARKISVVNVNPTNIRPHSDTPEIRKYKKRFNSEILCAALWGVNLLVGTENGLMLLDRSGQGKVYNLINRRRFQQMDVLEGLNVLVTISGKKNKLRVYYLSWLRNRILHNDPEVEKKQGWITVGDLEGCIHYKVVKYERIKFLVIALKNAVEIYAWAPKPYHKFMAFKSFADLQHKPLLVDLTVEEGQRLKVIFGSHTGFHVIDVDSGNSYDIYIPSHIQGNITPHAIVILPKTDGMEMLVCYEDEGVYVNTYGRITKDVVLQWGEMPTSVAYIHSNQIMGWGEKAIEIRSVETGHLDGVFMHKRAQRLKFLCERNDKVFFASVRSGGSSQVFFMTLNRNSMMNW
Tyrosine-protein kinase Yes (Homo sapiens), sequence (P07947 2-543 limits assumed): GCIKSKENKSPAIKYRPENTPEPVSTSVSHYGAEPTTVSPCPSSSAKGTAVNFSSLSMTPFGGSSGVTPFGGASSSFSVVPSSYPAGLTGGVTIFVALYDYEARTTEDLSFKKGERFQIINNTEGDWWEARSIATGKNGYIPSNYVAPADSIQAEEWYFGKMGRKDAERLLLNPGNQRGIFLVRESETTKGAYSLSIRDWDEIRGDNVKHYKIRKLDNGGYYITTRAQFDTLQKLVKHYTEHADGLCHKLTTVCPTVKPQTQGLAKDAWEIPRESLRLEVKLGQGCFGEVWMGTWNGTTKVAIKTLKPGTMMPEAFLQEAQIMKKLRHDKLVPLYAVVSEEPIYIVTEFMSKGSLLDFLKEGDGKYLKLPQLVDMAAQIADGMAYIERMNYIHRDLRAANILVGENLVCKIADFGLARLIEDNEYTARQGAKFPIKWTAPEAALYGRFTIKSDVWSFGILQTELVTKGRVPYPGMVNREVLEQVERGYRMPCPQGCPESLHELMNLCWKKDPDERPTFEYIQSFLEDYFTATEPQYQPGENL

Consider `CNc1cc(Oc2cc(C(=O)Nc3cc(N4CCN(C)CC4)cc(C(F)(F)F)c3)ccc2C)ncn1`, for which, in [1], the inhibition was found to be 11.5%.
For the compound `CCN1CCN(Cc2ccc(NC(=O)c3ccc(C)c(/C=C/c4cnc5[nH]ccc5c4OC)c3)cc2C(F)(F)F)CC1`, the inhibition in [2] was -1.5%; in [5], 2.9%. For the same compound, in assay [3], the percent of control was 2.2%. The residual activity in assay [4] was found to be 77%.
Consider `CCN1CCN(Cc2ccc(NC(=O)c3ccc(C)c(Oc4ccnc5[nH]ccc45)c3)cc2C(F)(F)F)CC1`, for which the inhibition result in assay [6], in assay [7], in assay [9] and in [11] was “inactive” in each case. The inhibition in [8] came out at 72.6%; in assay [12] it was 4.5%. In assay [10], this compound had a percent of control of 0.1%.
